# From patent US4840956A, “Novel disubstituted-7-pyrrolidinoquinoline antibacterial agents” (Warner-Lambert Company, priority 1988, dated 1989)
# Columns and labels:
# Assay in all cases: MIC by microtitration dilution method
# Type in all cases: cell-based
# [1] = tested on: Streptococcus pyogenes C-203; conditions: C203; Streptococcus pyogenes C-203, in vitro; read-out: Minimal Inhibitory Concentration MIC
# From the text: (§1) The compounds of the invention display antibacterial activity when tested by the microtitration dilution method as described in Heifetz, et al, Antimicr. Agents & Chemoth., 6, 124 (1974), which is incorporated herein by reference.
# (§2) By use of the above referenced method, the following minimum inhibitory concentration values (MICs in μg/ml) were obtained for representative compounds of the invention.
# [2] = tested on: Staphylococcus aureus H 228; conditions: H228; Staphylococcus aureus H 228, in vitro; read-out: Minimal Inhibitory Concentration MIC
# From the text: as §1, §2
# [3] = tested on: Staphylococcus aureus UC-76; conditions: UC76; Staphylococcus aureus UC-76, in vitro; read-out: Minimal Inhibitory Concentration MIC
# From the text: as §1, §2
# [4] = tested on: Streptococcus faecalis MGH-2; conditions: Enterococcus faecalis, MGH2; Streptococcus faecalis MGH-2, in vitro; read-out: Minimal Inhibitory Concentration MIC
# From the text: as §1, §2
# [5] = tested on: Streptococcus pneumoniae SV-1; conditions: SV1; Streptococcus pneumoniae SV-1, in vitro; read-out: Minimal Inhibitory Concentration MIC
# From the text: as §1, §2
# [6] = tested on: Proteus rettgeri M 1771; conditions: Providencia rettgeri, M1771; Proteus rettgeri M 1771, in vitro; read-out: Minimal Inhibitory Concentration MIC
# From the text: (§3) Agents & Chemoth., 6, 124 (1974), which is incorporated herein by reference.
# [7] = tested on: Enterobacter cloacae MA 2646; conditions: MA2646, read-out: Minimal Inhibitory Concentration MIC
# From the text: as §3
# [8] = tested on: Pseudomonas aeruginosa UI-18; conditions: UI18, read-out: Minimal Inhibitory Concentration MIC
# From the text: as §3
# [9] = tested on: Escherichia coli Vogel; conditions: in vitro, read-out: Minimal Inhibitory Concentration MIC
# From the text: as §3
# [10] = tested on: Klebsiella pneumoniae MGH-2; conditions: MGH2, read-out: Minimal Inhibitory Concentration MIC
# From the text: as §3
smiles,measurement,setting,value
"NCC1(c2ccccc2)CCN(c2c(F)cc3c(=O)c(C(=O)O)cn(C4CC4)c3c2F)C1 (stereo not shown) [Example 5, 7-[[3-(Aminomethyl)-3-phenyl]-1-pyrrolidinyl]-1-cyclopropyl-6,8-difluro-1,4-dihydro-4-oxo-3-quinolinecarboxylic acid]",MIC,[1],0.05 mg/L
same,MIC,[2],0.025 mg/L
same,MIC,[3],0.013 mg/L
same,MIC,[4],0.05 mg/L
same,MIC,[5],0.013 mg/L
same,MIC,[6],0.2 mg/L
same,MIC,[7],0.05 mg/L
same,MIC,[8],0.4 mg/L
same,MIC,[9],0.05 mg/L
same,MIC,[10],0.1 mg/L
